In patent US20160166654A1, “COLLAGEN-TARGETED NANOPARTICLES” (PURDUE RESEARCH FOUNDATION, priority 2011, published 2016) one finds TNF-α production data, which are given here for one substance.

The subject of this data set is TNF-α production by human monocytes (THP-1). The data set can be described thus: TNF-α production by THP-1 cells (ELISA). Format: cell-based. As to conditions: 24 hours, FIG. 8. The method, then: The biocompatibility of the nanoparticles was assessed by measuring toxicity and inflammation in THP-1 cells. Cells were seeded at a density of 250,000 cells/ml in 96-well plates (Corning) and treated with 10 ng/ml phorbol 12-myristate 13-acetate (PMA, Sigma-Aldrich) for 48 hours to induce differentiation, which was confirmed by the monocytes becoming adherent. Following a change of media, cells were treated with various concentrations of core+shell nanoparticles. Control samples received PBS (negative control) or 50 ng/ml lipopolysaccharide (LPS, Sigma-Aldrich) (positive control). After 24 hours, the media was collected for cytokine analysis and an MTT-based assay was performed to determine cell toxicity using the Aqueous One Proliferation Kit (Promega) according to manufacturer's instructions. […] After two hours of incubation in the cell culture incubator, the absorbance was read at 490 nm with a correction at 650 nm.
The ability of the particles to cause an inflammatory response was determined by running conditioned cell media on a TNF-α ELISA (PeproTech) according to manufacturer instructions. […] Following incubation with a detection antibody and an avidin-horse radish peroxidase conjugate, the samples were developed with the addition of 2,2′-azino-bis(3-ethylbenzthiazoline-6-sulphonic acid) (ABTS) liquid substrate (Sigma-Aldrich) and monitored at 405 nm with a correction at 650 nm.
For orientation: ELISA stands for enzyme-linked immunosorbent assay.

Take lipopolysaccharide: the TNF-α production result is on record as “did induce TNF-α production”.
